In general, IC50 refers to the concentration that inhibits the measured activity by half. Read a low IC50 as greater potency.

Five molecules from ChEMBL document CHEMBL1158988, “Cytotoxic norditerpene lactones from Ileostylus micranthus” (J Nat Prod, 1991) can be followed below.

In brackets after ≈: the same amount, converted by molar mass.

The assay relates to P388. Kind of assay: Cytotoxicity against mouse P388 cells. The assay is classed as functional, cell-based.

The molecule `CC(C)c1oc(=O)cc2c1[C@@H](O)[C@H]1OC(=O)[C@@]3(C)[C@@H](O)[C@H]4O[C@H]4[C@@]2(C)[C@@H]13` [NAGILACTONE C] displayed an IC50 of 0.33 µg/mL (≈ 0.911 µM).

`CC(C)[C@H]1OC(=O)C=C2[C@@]13O[C@@H]3[C@H]1OC(=O)[C@@]3(C)C[C@H](O)C[C@@]2(C)[C@@H]13` showed an IC50 of 0.06 µg/mL (≈ 0.172 µM). With `CC(C)c1oc(=O)cc2c1[C@@H](O)[C@H]1OC(=O)[C@@]3(C)C[C@H]4O[C@H]4[C@@]2(C)[C@@H]13` the figure was 0.65 µg/mL (≈ 1.88 µM). With `C=C[C@H]1OC(=O)C=C2C1=C[C@H]1OC(=O)[C@]3(C)[C@H]1[C@]2(C)[C@H]1O[C@H]1[C@@H]3O` [PODOLACTONE E] the figure was less than 0.01 µg/mL. With `CC(C)[C@H]1OC(=O)C=C2C1=C[C@H]1OC(=O)[C@@]3(C)C[C@H](O)C[C@@]2(C)[C@@H]13` the figure was 0.06 µg/mL (≈ 0.181 µM).
